This is an account of results in US4157392A, “Pharmacologically active substituted 1,2,4-triazines” (Diamond Shamrock Corporation, priority 1978, dated 1979).

Each structure is given as a SMILES string. Read-outs that look alike come from different tables or passages of the source.

The subject of test [1] is carrageenin-induced edema in the hind paw of a rat. Briefly: Carrageenin Assay (carrageenin-induced edema, hind paw). As to conditions: Rattus norvegicus, 1 h before carrageenin, edema at 3 h, compared to phenylbutazone control values, read-out: % Reduction of Edema. The class given is in vivo, rat (male, Long Evans strain). The essentials:
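Male Long Evans rats (130-200 g) dosed orally 1 h before intraplantar 0.05 ml 1.0 percent carrageenin into left hind paw. Edema volume by water-displacement differential paw volume at 3 h; expressed as percent reduction versus phenylbutazone control.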
For orientation: In the carrageenan paw model, swelling and tenderness develop within hours.

The test system of test [2] is phenylquinone writhing in mice. Briefly: Phenylquinone Writhing Assay (analgesia). The class given is in vivo, mouse (Carworth CF1 male mice). As to conditions: Mus musculus, po, read-out: Phenylquinone Writhing Assay (% Control), percent analgesia; for responders at 15 mg/kg: 15 mg/kg oral. The gist of the method:
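Male CF1 mice (ten per group) dosed orally in 0.25% methylcellulose, then challenged i.p. with 0.02% phenylquinone at 15, 30, 60 or 120 min post-dose. Mice showing no writhing over 10 min count as protected; percent analgesia = number protected ×10.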
For orientation: In writhing tests, fewer writhes than in controls are read as antinociception.

The test system of test [3] is central nervous system activity in mice. Briefly: Neuropharmacological Profile. The test is classed as in vivo, mouse (white male Carworth Farm Strain CF-1). As to conditions: 300,100,30,10 mg/kg intraperitoneal. The protocol:
The central nervous system activity of certain of the preferred compounds in accordance with the present invention were determined using the following neuropharmacological profile assay procedures.
White male mice of the Carworth Farm Strain (CF-1) weighing 18-22 grams were used in these determinations. […] Intraperitoneal injections were administered in logarithmic progression and sequentially. The dose levels employed routinely are 10, 30, 100, and 300 mg/kg, using four male mice at each dose level. Since this test was conducted in a sequential manner, the first dose administered was at 300 mg/kg. The mice were injected at this dose level and observed for gross changes produced by the drug, such as behavioral, neurological, autonomic, and toxic effects.
The animals were observed continuously for one hour and if no signs of pharmacological or toxicological activity were present at the end of the first hour, they were intermittently checked for activity every fifteen minutes thereafter for two consecutive hours. […] Subsequent dose levels below 300 mg/kg were not administered in this case. Alternatively, if demonstrable pharmacological changes occurred within the first three hours after administration of the drug at 300 mg/kg, the subsequent doses were administered and the animals observed for changes in overt behavior. The observation period begins immediately following the injection and the animals are then continuously observed for three hours and intermittently checked thereafter for forty-eight hours. The animals were observed and signs and symptoms of pharmacological activity were recorded continuously until no further symptoms developed and until the symptoms that had appeared were no longer present. […] It was very important that the animals were free to move about for evaluation of spacial orientation, alertness, and spontaneous motor activity. The animals were systematically observed and manipulated to measure the onset, peak effect, duration and character of drug action.
The major characteristics observed relative to central nervous system activity for the compounds indicated are summarized in the following Table IV.

Another test has as its system antihypertensive. As to conditions: Burger, Medicinal Chemistry, 3rd Ed., 1027; cited from earlier work.
In test [4] the test system is Spontaneously hypertensive rats. In words: SHR Assay (anti-hypertensive). The class given is in vivo, rat (spontaneously hypertensive). As to conditions: rat, in vivo. How it is done:
Spontaneously hypertensive rats, 12 to 16 weeks of age, were used in this assay. Systolic blood pressures were determined by the tail cuff method, utilizing capacitance transducers for the detection of pressure, an aneroid manometer for measuring pressure, and an oscilloscope for visualizing the disappearance and/or appearance of the pressure pulse. Heart rate was measured by a biotachometer. Groups of five rats having systolic blood pressures of 170 mmHg or greater were chosen and the test compounds administered at the doses indicated below (oral) as a solution or suspension in 0.25% methylcellulose (MC) at a volume of 5 ml/kg. One group served as the control and received the vehicle. Twenty-four hours after dosing, systolic blood pressure and heart rate were recorded. A second dose of compound was administered and blood pressure and heart rate determined at 4 and 24 hours after the second dose.

In test [5] the test system is adjuvant-induced arthritis, hind paw of the rat. Briefly: Adjuvant-Arthritis Assay. The class given is in vivo.
The next test relates to tuberculostatic. As to conditions: in vitro (J. Chem. Soc., 1956, 713-16); cited from earlier work.

Take `NNc1nncc(-c2ccccc2)n1` [Example 3, 3-hydrazino-5-phenyl-1,2,4-triazine]: the inhibition in vivo at 40 mg/kg in test [1] (40 mg/kg oral) was found to be 55%. Moreover, the responders at 100 mg/kg in test [2] (0.25 h, 100 mg/kg oral, 15 Min.) turned out to be 100%. The responders at 30 mg/kg in test [2] (0.5 h, 30 mg/kg oral, 30 Min.) was found to be 30%. Moreover, the responders at 70 mg/kg in test [2] (0.5 h, 70 mg/kg oral, 30 Min.) is 90%. In addition, the “CNS Activity” value in test [3] is on record as “Antidepressant”. Moreover, the antihypertensive activity result in the test with antihypertensive is given as “moderately active antihypertensive agent”.

On to `O=C(NNc1nncc(-c2ccccc2)n1)C(F)(F)F` [Example 7, 3-trifluoroacetyl hydrazino-5-phenyl-1,2,4-triazine], for which the inhibition in vivo at 150 mg/kg in test [1] (150 mg/kg oral) is 41%. Also, the responders at 15 mg/kg in test [2] (0.25 h, 15 Min.) was found to be 50%; in test [2] (1 h, 60 Min), 10%. Moreover, in test [4], the “duration of activity (hypotensive)” value is reported as “long duration of activity”. Besides, in test [4], the “onset of action (hypotensive)” value is “advantageous rapid onset of action”. The “Adjuvant-Arthritis Assay (% Reduction)” value amounted to 30% in test [5] (50 mg/kg oral once daily, Day 3, developing disease); 30% in test [5] (50 mg/kg oral once daily, Day 10, developing disease); 39% in test [5] (50 mg/kg oral once daily, Day 17, developing disease); 4% in test [5] (50 mg/kg oral, Day 20, established disease); 24% in test [5] (50 mg/kg oral, Day 27, established disease); 29% in test [5] (50 mg/kg oral, Day 31, established disease).

Consider `Cc1nnc(S)nc1C` [3-mercapto-5,6-dimethyl-1,2,4-triazine], for which the tuberculostatic activity result in the test on tuberculostatic is “tuberculostatic in vitro”.
